Read-outs that look alike come from different tables or passages of the source. *1 amine or outer side, *2 acyl side, *3 side chain or, on linkers, in order; H or OH if unused. Where a SMILES comes first, the peptide text is derived from it. Bridges are numbered along the chain shown (N, C = ends). Roman numbers before positions name the chains, in order. [ ]: non-standard residue; d: D form. Actinocin(9to1) = Cc1c2oc3c(C)ccc(C(=O)[*:1])c3nc-2c(C(=O)[*:2])c(N)c1=O; NMeV = CN[CH](C(=O)O)C(C)C; Sar = CNCC(=O)O
Columns and labels:
human neutrophils = assay: cis-unsaturated fatty acid-induced lipid body formation in human neutrophils (osmium staining, light microscopy enumeration); assay type: cell-based; conditions: for inhibition at 1 µM / inhibition at 10 µM: Homo sapiens, Neutrophil, basal subtracted; for inhibition of arachidonic acid-induced lipid body formation / inhibition of oleic acid-induced lipid body formation: human neutrophils, staurosporine 0.1-1.0 μM, aspirin 10 μg/mL, others as in Tables 1 and 2; for effect on numbers of preformed lipid bodies: neutrophils
Protocol: Neutrophils were purified from fresh human blood obtained by venipuncture from healthy adult volunteers and collected into acidified citrate. After addition of 6% dextran 70 (McGaw, Irvine, Calif.), RBCs were allowed to sediment for 1 hour at room temperature. The leukocyte-rich supernatant was overlaid onto an equal volume of Ficoll-Paque gradient (Piscataway, N.J.), and centrifuged at 400×g for 20 min. […] Residual RBCs were lysed with hypotonic saline.
Human leukocytes (10^6 cells/mL) were incubated with varying concentrations of arachidonic acid (AA), oleic acid (OA) or vehicle at 37° C. in a 5% CO2 /95% O2 atmosphere, and after 1 hour leukocytes (10^5 cells per slide) were cytocentrifuged (550 rpm, 5 min) onto glass slides. During inhibitory studies, neutrophils were pretreated for 1 hour with varying concentrations of enzyme inhibitors, protein synthesis inhibitors, or vehicle as indicated. When PKC inhibitors were used, the pre-incubation time was reduced to 30 minutes to avoid toxic effects to the cells. […] Stock solutions for A23187, D609, U-73122, and indomethacin were prepared in DMSO and stored at -20° C. Aliquots were diluted in Ca^++ /Mg^++ fee HBSS to the indicated concentration immediately prior to use. […] The morphology of fixed cells was observed, and lipid bodies were enumerated with phase contrast microscopy and a 100× objective lens in 50 consecutively scanned leukocytes.
Results were expressed as mean±SEM and were analyzed statistically by means of the analysis of variance followed by the Newman-Keuls-Student test with the level of significance set at p<0.05. Correlation coefficients were determined by linear regression, and correlation analysis was performed by Fisher's r to z transformation with the level of significance set at p<0.05.
^1 Neutrophils (10^6 /ml) were pretreated with protein kinase C
(actinomycin D, cycloheximide) for 30 min or with phospholipase C
inhibitors (D609, U73122) for 1 h. The cells were then stimulated with
vehicle, arachidonic acid (15 μM), or oleic acid (10 μM), for 1 h.
Results are mean ± SEM from fifty consecutively counted neutrophils.
Statistically significant differences between the agonist alone and the
inhibitor are represented by an asterisk(*). Percent inhibition has been
calculated after subtracting out the basal number of lipid bodies/PMN
present prior to stimulation.
^1 Neutrophils (10^6 /ml) were pretreated with the NSAID or
vehicle for 1 h then stimulated with vehicle, arachidonic acid, or oleic
± SEM from fifty consecutively counted neutrophils. Statistically
significant differences between the agonist alone and the NSAID are
represented by an asterisk (*). Percent inhibition has been calculated
after subtracting out the basal number of lipid bodies/PMN present prior

human leukocytes = assay: cytotoxicity / cell viability by trypan blue dye exclusion; assay type: cell-based; conditions: neutrophils
Protocol: Human leukocytes (10^6 cells/mL) were incubated with varying concentrations of arachidonic acid (AA), oleic acid (OA) or vehicle at 37° C. in a 5% CO2 /95% O2 atmosphere, and after 1 hour leukocytes (10^5 cells per slide) were cytocentrifuged (550 rpm, 5 min) onto glass slides. During inhibitory studies, neutrophils were pretreated for 1 hour with varying concentrations of enzyme inhibitors, protein synthesis inhibitors, or vehicle as indicated. When PKC inhibitors were used, the pre-incubation time was reduced to 30 minutes to avoid toxic effects to the cells. The cell viability, determined by trypan blue dye exclusion at the end of each experiment, was always greater than 90%. Stock solutions for A23187, D609, U-73122, and indomethacin were prepared in DMSO and stored at -20° C. Aliquots were diluted in Ca^++ /Mg^++ fee HBSS to the indicated concentration immediately prior to use. The final DMSO concentration was always lower than 0.1% and had no effect on lipid body numbers. […] The morphology of fixed cells was observed, and lipid bodies were enumerated with phase contrast microscopy and a 100× objective lens in 50 consecutively scanned leukocytes.

[1] = arachidonic acid 15 μM, inhibitor 1 μM
[2] = arachidonic acid 15 μM, inhibitor 10 μM
[3] = oleic acid 10 μM, inhibitor 1 μM
[4] = oleic acid 10 μM, inhibitor 10 μM

Row | Structure (SMILES) | inhibition at 1 µM (human neutrophils; arachidonic acid 15 μM, inhibitor 1 μM, read-out: % inhibition) [%] | inhibition at 10 µM (human neutrophils; arachidonic acid 15 μM, inhibitor 10 μM, read-out: % inhibition) [%] | inhibition at 1 µM (human neutrophils; oleic acid 10 μM, inhibitor 1 μM, read-out: % inhibition) [%] | inhibition at 10 µM (human neutrophils; oleic acid 10 μM, inhibitor 10 μM, read-out: % inhibition) [%] | lipid bodies (mean ± SEM)/cell (human neutrophils; [1]) [lipid bodies/cell] | lipid bodies (mean ± SEM)/cell (human neutrophils; [2]) [lipid bodies/cell] | inhibition of arachidonic acid-induced lipid body formation (human neutrophils) | inhibition of oleic acid-induced lipid body formation (human neutrophils) | effect on numbers of preformed lipid bodies (human neutrophils) | lipid bodies (mean ± SEM)/cell (human neutrophils; [3]) [lipid bodies/cell] | lipid bodies (mean ± SEM)/cell (human neutrophils; [4]) [lipid bodies/cell] | cytotoxicity (human leukocytes) | inhibition at 1 µM (human neutrophils; [1]) [%] | inhibition at 10 µM (human neutrophils; [2]) [%] | inhibition at 1 µM (human neutrophils; [3]) [%] | inhibition at 10 µM (human neutrophils; [4]) [%]
1 | Cc1c2oc3c(C)ccc(C(=O)NC4C(=O)NC(C(C)C)C(=O)N5CCCC5C(=O)N(C)CC(=O)N(C)C(C(C)C)C(=O)OC4C)c3nc-2c(C(=O)NC2C(=O)NC(C(C)C)C(=O)N3CCCC3C(=O)N(C)CC(=O)N(C)C(C(C)C)C(=O)OC2C)c(N)c1=O (stereo not drawn) [actinomycin D] (I: TVP[Sar][NMeV] / II: TVP[Sar][NMeV]; ester I:1-I:C, II:1-II:C; linker I:N-II:N via Actinocin(9to1); configuration not given here) | 47 | 64 | 26 | 42 | 8.4 ± 0.3 | 7.6 ± 0.3 | significantly inhibited | significantly inhibited | did not alter numbers of preformed lipid bodies | 8.8 ± 0.3 | 8.1 ± 0.3 | not cytotoxic | – | – | – | –
2 | C[C@@H]1C[C@@H]([C@H](O)CC2CC(=O)NC(=O)C2)C(=O)[C@@H](C)C1 [cycloheximide] | – | – | – | – | 9.8 ± 0.3 | 9.2 ± 0.3 | significantly inhibited | significantly inhibited | did not alter numbers of preformed lipid bodies | 9.0 ± 0.3 | 8.3 ± 0.3 | not cytotoxic | 17 | 30 | 22 | 38

Reference: US5837548A, “Treatment of inflammation by inhibition of lipid body formation” (Beth Israel Hospital, priority 1995, dated 1998)
